pEC50: −log10 of the molar value. Where “and” joins values, the source holds several entries; their conditions need not be identical. Identical values can stand only once. Like-named read-outs stand apart in the source and are kept apart here.
Target: T1, human Kv3.1 channels (hKv3.1) (Homo sapiens, UniProt P48547)
T1 sequence (P48547 1-501 limits assumed): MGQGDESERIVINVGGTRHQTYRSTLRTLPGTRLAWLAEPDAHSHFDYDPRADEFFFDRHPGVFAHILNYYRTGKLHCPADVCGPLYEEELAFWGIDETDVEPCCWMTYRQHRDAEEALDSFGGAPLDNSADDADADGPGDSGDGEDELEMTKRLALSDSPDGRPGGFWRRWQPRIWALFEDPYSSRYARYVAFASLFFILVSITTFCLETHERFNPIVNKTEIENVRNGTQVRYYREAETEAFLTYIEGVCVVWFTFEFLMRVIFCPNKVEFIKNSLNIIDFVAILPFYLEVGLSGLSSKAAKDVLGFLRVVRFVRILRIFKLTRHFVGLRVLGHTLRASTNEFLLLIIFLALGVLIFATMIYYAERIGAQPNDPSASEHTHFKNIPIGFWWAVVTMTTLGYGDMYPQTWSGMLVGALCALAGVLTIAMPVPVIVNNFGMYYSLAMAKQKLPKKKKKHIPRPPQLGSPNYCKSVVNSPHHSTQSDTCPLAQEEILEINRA
Assay: Measurement of Kv3 channel modulation: Kv3.1 assay (IonWorks Quattro whole-cell electrophysiology)
Format: cell-based
Conditions: for Kv3.1 max R %: normalised to maximum effect of reference compound (50 microM); for EC50: read-out: Kv3.1 pEC50 (converted)
Experimental: The ability of the compounds of the invention to modulate the voltage-gated potassium channel subtypes Kv3.4/Kv3.3/Kv3.2/Kv3.1 may be determined using the following assay. Analogous methods may be used to investigate the ability of the compounds of the invention to modulate other channel subtypes.
Human embryonic kidney (HEK)-hKv3.1 cell line is generated by transfecting HEK-293 cells with an expression vector with human Kv3.1 (NM_004976.4). Cells are cultured with MEM supplemented with 10% Heat-Inactivated FBS, 2 mM L-glutamine, 1% Penicillin-Streptomycin, and 0.6 mg/ml of Geneticin (G418). HEK-hKv3.1b cells were amplified in T175 cm2 flask at 37° C. with 5% CO2, using MEM amplification medium, containing the G418 selection antibiotic (0.6 mg/ml). Cells were detached every 3-4 days, using DPBS to wash twice the flask, then TrypLE to dislodge the cells, and re-plated at a density of 2-4×10^6 cells/flask.
The day of the experiment, cells are removed from the incubator and the culture medium removed. Cells are washed with 5 ml of Dulbecco's PBS (DPBS) calcium and magnesium free and detached by the addition of 3 ml Versene (Invitrogen, Italy) followed by a brief incubation at 37° C. for 5 minutes. The flask is tapped to dislodge cells and 10 ml of DPBS containing calcium and magnesium is added to prepare a cell suspension. The cell suspension is then placed into a 15 ml centrifuge tube and centrifuged for 2 min at 1200 rpm. After centrifugation, the supernatant is removed and the cell pellet re-suspended in 4 ml of DPBS containing calcium and magnesium using a 5 ml pipette to break up the pellet. Cell suspension volume is then corrected to give a cell concentration for the assay of approximately 3 million cells per ml.
Experiments are conducted at r.t. using IonWorks Quattro™ planar array electrophysiology technology (Molecular Devices Corp.) with PatchPlate™ PPC. Stimulation protocols and data acquisition are carried out using a microcomputer (Dell Pentium 4). Planar electrode hole resistances (Rp) are determined by applying a 10 mV voltage step across each well. These measurements are performed before cell addition. After cell addition and seal formation, a seal test is performed by applying a voltage step from −80 mV to −70 mV for 160 ms. Following this, amphotericin-B solution is added to the intracellular face of the electrode to achieve intracellular access. Cells are held at −70 mV. Leak subtraction is conducted in all experiments by applying 50 ms hyperpolarizing (10 mV) prepulses to evoke leak currents followed by a 20 ms period at the holding potential before test pulses.
For hKv3.2 and hKv3.1, assays from the holding potential of −70 mV, a first test pulse at −15 mV was applied for 100 ms and after 100 ms at −70 mV a second pulse at +40 mV was applied for 50 ms. Cells were then maintained for 100 ms at −100 mV and another pulse from […] to +40 mV (duration 50 ms) was applied to clamp later the voltage at −40 mV during 200 ms
The intracellular solution contains the following (in mM): K-gluconate 100, KCl 54, MgCl2 3.2, HEPES 5, adjusted to pH 7.3 with KOH. Amphotericin-B solution is prepared as 50 mg/ml stock solution in DMSO and diluted to a final working concentration of 0.1 mg/ml in intracellular solution.
Compounds of use in the invention (or reference compounds such as N-cyclohexyl-N-[(7,8-dimethyl-2-oxo-1,2-dihydro-3-quinolinyl)methyl]-N′-phenylurea) are dissolved in dimethylsulfoxide (DMSO) at a stock concentration of 10 mM. […] Each dilution (1 μL) is transferred to another compound plate and external solution containing 0.05% pluronic acid (66 μL) is added. 3.5 μL from each plate containing a compound of the invention is added and incubated with the cells during the IonWorks Quattro™ experiment. The final assay dilution is 200 and the final compound concentrations are in the range 50 μM to 50 nM.

[1] = Table 2, Example compounds, rounded to one decimal place, some compounds with two data sets (n given in cell)
[2] = Table 3, Reference Examples and corresponding Examples, rounded to one decimal place

Compound | Kv3.1 max R % (Table 2, Example compounds) | EC50 [1] | EC50 [2] | pEC50 (Kv3.1 pEC50, Table 2, Example compounds, rounded to one decimal place, some compounds with two data sets (n given in cell)) | EC50 (Table 5, Example compounds)
Cc1ccc(Oc2ccc(-n3c(=O)[nH]c4cccnc43)cn2)c2c1OCC21CC1 [Example 1, 3-[6-(7-methylspiro[2H-benzofuran-3,1′-cyclopropane]-4-yl)oxy-3-pyridyl]-1H-imidazo[4,5-b]pyridin-2-one] | 148% | 200 nM | 200 nM |  | 
Cc1ccc(Oc2ccc(-n3c(=O)[nH]c4c(C)ccnc43)cn2)c2c1OCC21CC1 [Example 2, 7-methyl-3-[6-(7-methylspiro[2H-benzofuran-3,1′-cyclopropane]-4-yl)oxy-3-pyridyl]-1H-imidazo[4,5-b]pyridin-2-one] | 83% | 158 nM |  |  | 
O=c1[nH]c2cccnc2n1-c1ccc(Oc2cccc3c2C2(CC2)CO3)nc1 [Example 3, 3-(6-spiro[2H-benzofuran-3,1′-cyclopropane]-4-yloxy-3-pyridyl)-1H-imidazo[4,5-b]pyridin-2-one] | 197% |  |  | 7.00 | 
Cc1ccnc2c1[nH]c(=O)n2-c1ccc(Oc2cccc3c2C2(CC2)CO3)nc1 [Example 5, 7-methyl-3-(6-spiro[2H-benzofuran-3,1′-cyclopropane]-4-yloxy-3-pyridyl)-1H-imidazo[4,5-b]pyridin-2-one] | 132% | 316 nM |  |  | 
O=c1[nH]c2cccnc2n1-c1ccc(Oc2cccc3c2C2(CC2)CO3)cn1 [Example 6, 3-(5-spiro[2H-benzofuran-3,1′-cyclopropane]-4-yloxy-2-pyridyl)-1H-imidazo[4,5-b]pyridin-2-one] | 221% | 2000 nM |  |  | 
O=c1[nH]c2cccnc2n1-c1ccc(Oc2cccc(OC(F)(F)F)c2)nc1 [Example 7, 3-[6-[3-(trifluoromethoxy)phenoxy]-3-pyridyl]-1H-imidazo[4,5-b]pyridin-2-one] | 89% and 96% | 501 nM and 398 nM | 398 nM |  | 398 nM
CC1(C)COc2cccc(Oc3cnc(-n4c(=O)[nH]c5cccnc54)cn3)c21 [Example 9, 3-[5-[(3,3-dimethyl-2H-benzofuran-4-yl)oxy]pyrazin-2-yl]-1H-imidazo[4,5-b]pyridin-2-one] | 147% | 1260 nM |  |  | 
O=c1[nH]c2cccnc2n1-c1cnc(Oc2cccc(OC(F)(F)F)c2)cn1 [Example 10, 3-[5-[3-(trifluoromethoxy)phenoxy]pyrazin-2-yl]-1H-imidazo[4,5-b]pyridin-2-one] | 94% | 2000 nM |  |  | 
Cc1ccc(Oc2cnc(-n3c(=O)[nH]c4cccnc43)cn2)c2c1OCC21CC1 [Example 11, 3-[5-(7-methylspiro[2H-benzofuran-3,1′-cyclopropane]-4-yl)oxypyrazin-2-yl]-1H-imidazo[4,5-b]pyridin-2-one] | 205% | 316 nM |  |  | 
CC1(C)COc2cccc(Oc3ccc(-n4c(=O)[nH]c5cccnc54)cn3)c21 [Example 12, 3-[6-[(3,3-dimethyl-2H-benzofuran-4-yl)oxy]-3-pyridyl]-1H-imidazo[4,5-b]pyridin-2-one] | 164% | 316 nM |  |  | 
N#Cc1ccc(Oc2ccc(-n3c(=O)[nH]c4cccnc43)cn2)cc1OC(F)(F)F [Example 14, 4-[[5-(2-oxo-1H-imidazo[4,5-b]pyridin-3-yl)-2-pyridyl]oxy]-2-(trifluoromethoxy)benzonitrile] | 124% | 1000 nM |  |  | 
Cc1ccnc2c1[nH]c(=O)n2-c1cnc(Oc2cccc3c2C2(CC2)CO3)nc1 [Example 15, 7-methyl-3-(2-spiro[2H-benzofuran-3,1′-cyclopropane]-4-yloxypyrimidin-5-yl)-1H-imidazo[4,5-b]pyridin-2-one] | 201% | 1000 nM |  |  | 
COc1cccc(Oc2ncc(-n3c(=O)[nH]c4cccnc43)cn2)c1 [Example 16, 3-[2-(3-methoxyphenoxy)pyrimidin-5-yl]-1H-imidazo[4,5-b]pyridin-2-one] | 124% | 3160 nM |  |  | 
Cn1cc2[nH]c(=O)n(-c3ccc(Oc4cccc5c4C4(CC4)CO5)nc3)c2n1 [Example 18, 2-methyl-6-(6-spiro[2H-benzofuran-3,1′-cyclopropane]-4-yloxy-3-pyridyl)-4H-imidazo[4,5-c]pyrazol-5-one] | 148% | 251 nM |  |  | 
Cc1ccc(Oc2ccc(-n3c(=O)[nH]c4cn(C)nc43)cn2)c2c1OCC21CC1 [Example 19, 2-methyl-6-[6-(7-methylspiro[2Hbenzofuran-3,1′-cyclopropane]-4-yl)oxy-3-pyridyl]-4H-imidazo[4,5-c]pyrazol-5-one] | 99% | 316 nM |  |  | 
Cn1cc2[nH]c(=O)n(-c3ccc(Oc4cccc5c4C(C)(C)CO5)nc3)c2n1 [Example 20, 6-[6-[(3,3-dimethyl-2H-benzofuran-4-yl)oxy]-3-pyridyl]-2-methyl-4H-imidazo[4,5-c]pyrazol-5-one] | 145% and 155% | 794 nM and 631 nM |  |  | 
Cn1cc2[nH]c(=O)n(-c3cnc(Oc4cccc5c4C4(CC4)CO5)cn3)c2n1 [Example 21, 2-methyl-6-(5-spiro[2H-benzofuran-3,1′-cyclopropane]-4-yloxypyrazin-2-yl)-4H-imidazo[4,5-c]pyrazol-5-one] | 96% | 10000 nM |  |  | 
Cn1cc2[nH]c(=O)n(-c3cnc(Oc4cccc5c4C4(CC4)CO5)nc3)c2n1 [Example 22, 2-methyl-6-(2-spiro[2H-benzofuran-3,1′-cyclopropane]-4-yloxypyrimidin-5-yl)-4H-imidazo[4,5-c]pyrazol-5-one] | 166% | 501 nM |  |  | 
CC1(C)COc2cccc(Oc3ncc(-n4c(=O)[nH]c5ccncc54)cn3)c21 [Example 23, 3-[2-[(3,3-dimethyl-2H-benzofuran-4-yl)oxy]pyrimidin-5-yl]-1H-imidazo[4,5-c]pyridin-2-one] | 101% and 107% | 10000 nM and 7940 nM | 7940 nM |  | 
Cc1ncc2[nH]c(=O)n(-c3ccc(Oc4ccc(C)c5c4C4(CC4)CO5)nc3)c2n1 [Example 25, 2-methyl-9-[6-(7-methylspiro[2H-benzofuran-3,1′-cyclopropane]-4-yl)oxy-3-pyridyl]-7H-purin-8-one] | 190% | 316 nM |  |  | 
Cc1ncc2[nH]c(=O)n(-c3ccc(Oc4ccc(C)c(OC(F)(F)F)c4)nc3)c2n1 [Example 27, 2-methyl-9-[6-[4-methyl-3-(trifluoromethoxy)phenoxy]-3-pyridyl]-7H-purin-8-one] | 134% and 138% | 1580 nM and 1260 nM |  |  | 

Reference: patent US20240327406A1, “POTASSIUM CHANNEL MODULATORS” (Autifony Therapeutics Limited, priority 2021, published 2024)
